According to patent publication US20050096331A1, “Novel compounds and their use in medicine process for their preparation and pharmaceutical compositions containing them” (priority 2001, published 2005):
Each block holds one compound with its values, some of them ahead of it.

Assays:
[1] = tested on: C57BL/KsJ-db/db mice; assay: Efficacy in genetic models: blood sugar and triglyceride lowering in db/db mice; type: in vivo, mouse
Source text: Mutation in colonies of laboratory animals and different sensitivities to dietary regimens have made the development of animal models with non-insulin dependent diabetes and hyperlipidemia associated with obesity and insulin resistance possible. Genetic models such as db/db and ob/ob (Diabetes, (1982) 31(1): 1-6) mice and zucker fa/fa rats have been developed by the various laboratories for understanding the pathophysiology of disease and testing the efficacy of new antidiabetic compounds (Diabetes, (1983) 32: 830-838; Annu. Rep. Sankyo Res. Lab. (1994). 46: 1-57). The homozygous animals, C57 BL/KsJ-db/db mice developed by Jackson Laboratory, US, are obese, hyperglycemic, hyperinsulinemic and insulin resistant (J. Clin. Invest., (1990) 85: 962-967), whereas heterozygous are lean and normoglycemic. In db/db model, mouse progressively develops insulinopenia with age, a feature commonly observed in late stages of human type II diabetes when blood sugar levels are insufficiently controlled. The state of pancreas and its course vary according to the models. Since this model resembles that of type II diabetes mellitus, the compounds of the present invention were tested for blood sugar and triglycerides lowering activities.
Male C57BL/KsJ-db/db mice of 8 to 14 weeks age, having body weight range of 35 to 60 grams, bred at Dr. Reddy's Research Foundation (DRF) animal house, were used in the experiment The mice were provided with standard feed (National Institute of Nutrition (NIN), Hyderabad, India) and acidified water, ad libitum. The animals having more tan 350 mg/dl blood sugar were used for testing. The number of animals in each group was 4.
Test compounds were suspended on 0.25% carboxymethyl cellulose and administered to test group at a dose of 0.1 mg to 30 mg/kg through oral gavage daily for 6 days. The control group received vehicle (dose 10 ml/kg). On 6th day the blood samples were collected one hour after administration of test compounds/vehicle for assessing the biological activity.
The random blood sugar and triglyceride levels were measured by collecting blood (100 μl) through orbital sinus, using heparinised capillary in tubes containing EDTA which was centrifuged to obtain plasma. The plasma glucose and triglyceride levels were measured spectrometrically, by glucose oxidase and glycerol-3-PO4 oxidase/peroxidase enzyme (Dr. Reddy's Lab. Diagnostic Division Kits, Hyderabad, India) methods respectively.
The blood sugar and triglycerides lowering activities of the test compound was calculated according to the formula.
(§1) • 1. Percent reduction in Blood sugar/triglycerides/total cholesterol were calculated according to the formula: [formula] • OC=Zero day control group value • OT=Zero day treated group value • TC=Test day control group value • TT=Test day treated group value • 2. LDL and VLDL cholesterol levels were calculated according to the formula: [formula] [formula]

[2] = molecular target: T1, hPPARα (Homo sapiens, UniProt Q07869); assay: Determination of hPPARα activity (GAL4 luciferase reporter transactivation); type: cell-based; settings: compound at 50 μM; luciferase activity in transfected HEK-293 cells
T1 construct: expressed in transfected cells; host or cells: HEK-293
T1 sequence (Q07869 239-466 limits assumed): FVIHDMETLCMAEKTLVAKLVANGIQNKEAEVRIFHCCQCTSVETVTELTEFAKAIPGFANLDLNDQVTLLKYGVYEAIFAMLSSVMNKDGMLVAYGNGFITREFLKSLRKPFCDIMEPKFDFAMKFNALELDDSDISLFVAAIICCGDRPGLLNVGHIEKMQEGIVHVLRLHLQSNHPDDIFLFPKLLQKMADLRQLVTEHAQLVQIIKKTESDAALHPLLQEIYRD
Procedure: Ligand binding domain of hPPARα was fused to DNA binding domain of Yeast transcription factor GAL4 in eucaryotic expression vector. Using superfect (Qiagen, Germany) as transfecting reagent HEK-293 cells were transfected with this plasmid and a reporter plasmid harboring the luciferase gene driven by a GAL4 specific promoter. Compound was added at different concentrations after 42 hrs of transfection and incubated overnight. Luciferase activity as a function of compound binding/activation capacity of PPARα was measured using Packard Luclite kit (Packard, USA) in Top Count (Ivan Sadowski, Brendan Bell, Peter Broag and Melvyn Hollis. Gene 1992, 118: 137-141; Superfect Transfection Reagent Handbook. February 1997. Qiagen, Germany).

[3] = molecular target: T2, hPPARγ1 (Homo sapiens, UniProt P37231); assay: Determination of hPPARγ activity (GAL4 luciferase reporter transactivation); type: cell-based; settings: compound at 1 μM; luciferase activity in transfected HEK-293 cells
T2 construct: expressed in transfected cells; host or cells: HEK-293
T2 sequence (P37231 238-503 limits assumed): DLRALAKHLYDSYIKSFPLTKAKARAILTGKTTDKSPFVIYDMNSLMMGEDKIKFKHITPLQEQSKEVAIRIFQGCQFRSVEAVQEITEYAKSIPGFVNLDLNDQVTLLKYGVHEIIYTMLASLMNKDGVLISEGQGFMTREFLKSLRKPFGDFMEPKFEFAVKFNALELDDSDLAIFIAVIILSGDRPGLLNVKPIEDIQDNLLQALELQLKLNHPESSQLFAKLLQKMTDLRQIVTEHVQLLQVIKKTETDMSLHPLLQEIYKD
Procedure: Ligand binding domain of hPPARγ1 was fused to DNA binding domain of Yeast transcription factor GAL4 in eucaryotic expression vector. Using lipofectamine (Gibco BRL, USA) as transfecting reagent HEK-293 cells were transfected with this plasmid and a reporter plasmid harboring the luciferase gene driven by a GAL4 specific promoter. Compound was added at 1 μM concentration after 48 hrs of transfection and incubated overnight. Luciferase activity as a function of drug binding/activation capacity of PPARγ1 was measured using Packard Luclite kit (Packard, USA) in Packard Top Count (Ivan Sadowski, Brendan Bell, Peter Broag and Melvyn Hollis. Gene 1992, 118: 137-141; Guide to Eukaryotic Transfections with Cationic Lipid Reagents. Life Technologies, GIBCO BRL, USA).

[4] = tested on: Swiss albino mice; assay: Plasma triglyceride and total cholesterol lowering activity in Swiss albino mice and Guinea pigs; type: in vivo, mouse; settings: 6 days
Procedure: Male Swiss albino mice (SAM) and male Guinea pigs were obtained from NIN and housed in DRF animal house. All these animals were maintained under 12 hour light and dark cycle at 25±1° C. Animals were given standard laboratory chow (NIN, Hyderabad, India) and water, ad libitum. SAM of 20-25 g body weight range and Guinea pigs of 500-700 g body weight range were used (Oliver, P., Plancke, M. O., Marzin, D., Clavey, V., Sauzieres, J and Fruchart, J. C. Effects of fenofibrate, gemfibrozil and nicotinic acid on plasma lipoprotein levels in normal and hyperlipidemic mice. Atherosclerosis. 1988. 70: 107-114).
The test compounds were administered orally to Swiss albino mice at 0.3 to 30 mg/kg/day dose for 6 days. Control mice were treated with vehicle (0.25% Carboxymethylcellulose; dose 10 ml/kg). The test compounds were administered orally to Guinea pigs at […] dose for 6 days. Control animals were treated with vehicle (0.25% Carboxymethylcellulose; dose 5 ml/kg).
The blood samples were collected in fed state 1 hour after drug administration on 0 and 6 day of treatment. The blood was collected from the retro-orbital sinus through heparinised capillary in EDTA containing tubes. After centrifugation, plasma sample was separated for triglyceride and total cholesterol (Wieland, O. Methods of Enzymatic analysis. Bergermeyer, H. O., Ed., 1963. 211-214; Trinder, P. Ann. Clin. Biochem 1969, 6: 24-27). Measurement of plasma triglyceride, total cholesterol and HDL were done using commercial kits (Dr. Reddy's Diagnostic Division, Hyderabad, India).
as §1

[5] = 3 mg/kg oral gavage daily for 6 days
[6] = 10 mg/kg oral gavage daily for 6 days

SMILES: CCCc1nn(C)c2c(OCCOc3ccc(CC(OCC)C(=O)OCC)cc3)nc(C)nc12 (stereo in doubt) [Example 5, Ethyl 2(S)-3-[4-{2-1,5-dimethyl-3-propyl-1H-pyrazolo[4,3-dipyrimidin-7-yloxy)ethoxy}phenyl]-2-ethoxypropanoate]
Reduction in Blood Glucose Level (%) [1, 5]: 61%
Triglyceride Lowering (%) [1, 5]: 51%

PPARα [2]: 2.7
PPARγ [3]: 1.4
SMILES: CCCCCCCN(C(=O)COc1nc(CC)nc2c(CCC)nn(C)c12)c1ccc(SC(CCC)C(=O)O)cc1 (stereo not shown) [Example 2, 2-[4-(5-Ethyl-1-methyl-3-propyl-1H-pyrazolo[4,3-d]pyrimidin-7-yloxymethyl-(heptyl)carboxamido)phenylsulfanyl]pentanoic Acid]

SMILES: CCCc1nn(C)c2c(OCCOc3ccc(C[C@H](OCC)C(=O)OC)cc3)nc(CC)nc12 [Example 4a, Methyl 2(S)-2-ethoxy-3-[4-{2-(5-ethyl-1-methyl-3-propyl-1H-pyrazolo [4,3-d]-pyrimidin-7-yloxy)ethoxy}phenyl]propanoate]
Reduction in Blood Glucose Level (%) [1, 6]: 48%
Triglyceride Lowering (%) [1, 6]: 69%

PPARα [2]: 5.1
PPARγ [3]: 6.9
SMILES: CCCc1nn(C)c2c(OCCOc3ccc(C[C@H](OCC)C(=O)O)cc3)nc(CC)nc12 [Example 4b, 2(S)-2-Ethoxy-3-[4-{2-(5-ethyl-1-methyl-3-propyl-1H-pyrazolo[4,3-d]pyrimidin-7-yloxy)ethoxy}phenyl]propanoic Acid]
Reduction in Blood Glucose Level (%) [1, 6]: 56%
Triglyceride Lowering (%) [1, 6]: 17%

SMILES: CCCc1nn(C)c2c(OCCOc3ccc(CC(OCC)C(=O)OCC)cc3)nc(-c3ccccc3)nc12 (stereo not shown) [Example 7, Ethyl 2-ethoxy-3-[4-{2-(1-methyl-5-phenyl-3-propyl-1H-pyrazolo-[4,3-d]-pyrimidin-7-yloxy)ethoxy}phenyl]propanoate]
Triglyceride Lowering (%) ([4]; 3 mg/kg orally): 43%

SMILES: CCCc1nn(C)c2c(OCCOc3ccc(CC(OCC)C(=O)O)cc3)nc(-c3ccccc3)nc12 (stereo not shown) [Example 8, 3-[4-{2-(1-Methyl-5-phenyl-3-propyl-1H-pyrazolo-14,3-d]pyrimidin-7-yloxy)ethoxy}phenyl-2-ethoxypropanoic Acid]
Triglyceride Lowering (%) ([4]; 10 mg/kg orally): 61%

SMILES: CCCc1nn(C)c2c(OCCOc3ccc(C[C@H](OCC)C(=O)O)cc3)nc(C3CC3)nc12 [Example 10, (2S)-3-[4-{2-(5-Cyclopropyl-1-methyl-3-propyl-1H-pyrazolo[4,3-d]pyrimidin-7-yloxy)ethoxy}phenyl]-2-ethoxypropanoic Acid]
Triglyceride Lowering (%) ([4]; 3 mg/kg orally): 42%
